According to patent publication US20240150293A1, “SPIROCYCLOHEXANE DERIVATIVES, PHARMACEUTICAL COMPOSITIONS CONTAINING THEM AND THEIR USES AS ANTI-APOPTOTIC INHIBITORS” (LES LABORATOIRES SERVIER, priority 2021, published 2024):

These compounds were tested against Mcl-1 protein (UniProtKB Q07820) (Homo sapiens (Human), UniProt Q07820) (assay: Inhibition of Mcl-1 by the fluorescence polarisation assay (Example A, Method A)). Conditions: fluorescence polarization assay.
Type: binding
Procedure: The relative binding potency of each compound was determined via Fluorescence Polarisation (FP). The method utilised a Fluorescein labelled ligand (Fluorescein-βAla-Ahx-A-REIGAQLRRMADDLNAQY-OH; MW 2,765) which binds to the Mcl-1 protein (such that Mcl-1 corresponds to the UniProtKB® primary accession number: Q07820) leading to an increased anisotropy measured in milli-polarisation (mP) units using a reader. The addition of a compound which binds competitively to the same site as the ligand will result in a greater proportion of unbound ligand in the system indicated by a decrease in mP units.
An 11 point serial dilution of each compound was prepared in DMSO and 2 μl transferred into flat bottomed, low binding, 384-well plate (final DMSO concentration 5%). 38 μl of buffer containing the Fluorescein labelled ligand (final concentration 1 nM) and Mcl-1 protein (final concentration 5 nM) was then added. Buffer components were 10 mM 4-(2-hydroxyethyl)-1-piperazineethanesulfonic acid [HEPES], 150 mM NaCl, pH 7.4 with the addition of 0.05% Tween 20.
Assay plates were incubated for 2 hours at room temperature before FP was measured on a […] Synergy Neo reader ([…], Cut off 510 nm) and mP units calculated. The binding of increasing doses of test compound was expressed as a percentage reduction in mP compared to a window established between ‘5% DMSO only’ and ‘100% inhibition’ controls. 11-point dose response curves were plotted with XL-Fit software using a 4-Parameter Logistic Model (Sigmoidal Dose-Response Model) and the inhibitory concentrations that gave a 50% reduction in mP (IC50) were determined. The Ki values were determined from the IC50 values according to Cer et al, Nucleic Acids Res, 2009, 37 (WebServer issue): W441-W445. Inhibition constants (Ki) are determined from complete binding inhibition curves (cKi) or from estimated from incomplete binding inhibition curves (eKi) in most cases due to low activity.

Sequence of Mcl-1 protein (Q07820 whole entry): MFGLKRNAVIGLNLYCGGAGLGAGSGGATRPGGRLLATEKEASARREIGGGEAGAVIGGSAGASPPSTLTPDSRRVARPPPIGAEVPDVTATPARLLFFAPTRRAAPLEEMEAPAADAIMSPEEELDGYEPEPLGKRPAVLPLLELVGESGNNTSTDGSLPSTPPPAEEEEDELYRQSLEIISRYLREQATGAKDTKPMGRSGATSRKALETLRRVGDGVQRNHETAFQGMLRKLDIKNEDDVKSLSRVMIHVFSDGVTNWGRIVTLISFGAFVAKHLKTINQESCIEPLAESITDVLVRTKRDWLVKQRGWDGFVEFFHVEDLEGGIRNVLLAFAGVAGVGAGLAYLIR

In order of rising Ki:
1. O=C(O)[C@]1(Nc2cccc(Cl)c2)CC[C@@]2(CC1)c1ccccc1CC2CCCOc1ccnc2c1CCCC2O (stereo partly shown) [Example 474, (1r,4r)-4-(3-chloroanilino)-2′-{3-[(8-hydroxy-5,6,7,8-tetrahydroquinolin-4-yl)oxy]propyl}-2′,3′-dihydrospiro[cyclohexane-1,1′-indene]-4-carboxylic acid]  0.096 µM
2. Cc1cnccc1OC[C@H](C)CC1Cc2ccccc2[C@]12CC[C@@](Nc1cccc(Cl)c1)(C(=O)O)CC2 (stereo partly drawn) [Example 576, (1r,4R)-4-(3-chloroanilino)-2′-{(2R)-2-methyl-3-[(3-methylpyridin-4-yl)oxy]propyl}-2′,3′-dihydrospiro[cyclohexane-1,1′-indene]-4-carboxylic acid]  0.124 µM
3. O=C(O)[C@]1(Nc2cccc(Cl)c2)CC[C@@]2(CC1)c1ccccc1CC2CCCOc1ccc(F)cc1 (stereo partly shown) [Example 425, (1r,4r)-4-(3-chloroanilino)-2′-[3-(4-fluorophenoxy)propyl]-2′,3′-dihydrospiro[cyclohexane-1,1′-indene]-4-carboxylic acid]  0.477 µM
4. O=C(O)[C@]1(Nc2cccc(Cl)c2)CC[C@]2(CC1)C(COCCc1ccccc1F)=Cc1ccccc12 [Example 410, (1s,4s)-4-(3-chloroanilino)-2′-{[2-(2-fluorophenyl)ethoxy]methyl}spiro[cyclohexane-1,1′-indene]-4-carboxylic acid]  0.55 µM
5. O=C1CCc2c(OCCCC3Cc4ccccc4[C@]34CC[C@@](Nc3cccc(Cl)c3)(C(=O)O)CC4)cccc21 (stereo partly shown) [Example 435, (1r,4r)-4-(3-chloroanilino)-2′-{3-[(1-oxo-2,3-dihydro-1H-inden-4-yl)oxy]propyl}-2′,3′-dihydrospiro[cyclohexane-1,1′-indene]-4-carboxylic acid]  0.555 µM
6. O=C(O)[C@]1(Nc2cccc(Cl)c2)CC[C@@]2(CC1)c1ccccc1CC2CCCOC1CCOc2ccccc21 (stereo partly shown) [Example 471, (1r,4r)-4-(3-chloroanilino)-2′-{3-[(3,4-dihydro-2H-1-benzopyran-4-yl)oxy]propyl}-2′,3′-dihydrospiro[cyclohexane-1,1′-indene]-4-carboxylic acid]  0.62 µM
7. O=C(O)[C@]1(Nc2cccc(Cl)c2)CC[C@@]2(CC1)c1ccccc1CC2CCCOC1CCOCC1 (stereo partly shown) [Example 467, (1r,4r)-4-(3-chloroanilino)-2′-{3-[(oxan-4-yl)oxy]propyl}-2′,3′-dihydrospiro[cyclohexane-1,1′-indene]-4-carboxylic acid]  0.746 µM
8. O=C(O)C1(Nc2cccc(Br)c2)CCC2(CC1)c1ccccc1CC2c1cccc(Cl)c1 (stereo not shown) [Example 221, 4-(3-bromoanilino)-2′-(3-chlorophenyl)-2′,3′-dihydrospiro[cyclohexane-1,1′-indene]-4-carboxylic acid]  0.995 µM
9. O=C(O)[C@]1(Nc2cccc(Cl)c2)CC[C@]2(CC1)C(c1cccc(OCc3ccccc3)c1)=Cc1ccccc12 [Example 302, (1s,4s)-2′-[3-(benzyloxy)phenyl]-4-(3-chloroanilino)spiro[cyclohexane-1,1′-indene]-4-carboxylic acid]  1.51 µM
10. COc1ccc(C2Cc3ccccc3[C@]23CC[C@@](Nc2cccc(Cl)c2)(C(=O)O)CC3)c(C)c1 (single isomer, unassigned) [Example 254, (1r,4r)-4-(3-chloroanilino)-2′-(4-methoxy-2-methylphenyl)-2′,3′-dihydrospiro[cyclohexane-1,1′-indene]-4-carboxylic acid]  2.17 µM
11. Cc1cncn(CCCC2Cc3ccccc3[C@]23CC[C@@](Nc2cccc(Cl)c2)(C(=O)O)CC3)c1=O (stereo partly shown) [Example 183, (1r,4r)-4-(3-chloroanilino)-2′-[3-(5-methyl-6-oxopyrimidin-1 (6H)-yl)propyl]-2′,3′-dihydrospiro[cyclohexane-1,1′-indene]-4-carboxylic acid]  2.48 µM
12. COc1cccc(Cl)c1C1Cc2ccccc2[C@]12CC[C@@](Nc1cccc(Cl)c1)(C(=O)O)CC2 (mixture of isomers) [Example 283, (1r,4r)-4-(3-chloroanilino)-2′-(2-chloro-6-methoxyphenyl)-2′,3′-dihydrospiro[cyclohexane-1,1′-indene]-4-carboxylic acid]  4.16 µM
13. CN1c2ccc(CCc3ccccc3)cc2[C@]2(CC[C@](Nc3cccc(Br)c3)(C(=O)O)CC2)C1=O [Example 11, (1r,4r)-4-(3-bromoanilino)-1′-methyl-2′-oxo-5′-(2-phenylethyl)-1′,2′-dihydrospiro[cyclohexane-1,3′-indole]-4-carboxylic acid]  6.43 µM
14. O=C(O)[C@]1(Nc2cccc(Cl)c2)CC[C@@]2(CC1)c1ccccc1CC2c1cccc2ccoc12 (single isomer, unassigned) [Example 294, (1r,4r)-2′-(1-benzofuran-7-yl)-4-(3-chloroanilino)-2′,3′-dihydrospiro[cyclohexane-1,1′-indene]-4-carboxylic acid]  6.63 µM
15. O=C(O)[C@]1(Nc2cccc(Cl)c2)CC[C@]2(CC1)C(C1CN(Cc3ccncc3)C1)=Cc1ccccc12 [Example 98, (1r,4r)-4-(3-chloroanilino)-2′-{1-[(pyridin-4-yl)methyl]azetidin-3-yl}spiro[cyclohexane-1,1′-indene]-4-carboxylic acid]  10.4 µM
16. CN1c2ccc(-c3ccccc3)cc2[C@]2(CC[C@](Nc3cccc(Br)c3)(C(=O)O)CC2)C1=O [Example 10, (1r,4r)-4-(3-bromoanilino)-1′-methyl-2′-oxo-5′-phenyl-1′,2′-dihydrospiro[cyclohexane-1,3′-indole]-4-carboxylic acid]  10.7 µM
17. O=C(O)[C@]1(Nc2cccc(Br)c2)CC[C@@]2(CC1)c1ccccc1C[C@@H]2c1ccccc1 [Example 211, (1r,2′R,4R)-4-(3-bromoanilino)-2′-phenyl-2′,3′-dihydrospiro[cyclohexane-1,1′-indene]-4-carboxylic acid]  11 µM
18. COc1ccc(C2Cc3ccccc3[C@]23CC[C@@](Nc2cccc(Cl)c2)(C(=O)O)CC3)c(C)c1 (single isomer, unassigned) [Example 255, (1r,4r)-4-(3-chloroanilino)-2′-(4-methoxy-2-methylphenyl)-2′,3′-dihydrospiro[cyclohexane-1,1′-indene]-4-carboxylic acid]  11.6 µM
19. C/C=C/c1ccc2c(c1)[C@]1(CC[C@](Nc3cccc(Br)c3)(C(=O)O)CC1)C(=O)N2C [Example 12, (1r,4r)-4-(3-bromoanilino)-1′-methyl-2′-oxo-5′-[(1E)-prop-1-en-1-yl]-1′,2′-dihydrospiro[cyclohexane-1,3′-indole]-4-carboxylic acid]  12.4 µM
20. CC1N(C)c2ccccc2[C@]12CC[C@@](Nc1cccc(Br)c1)(C(=O)O)CC2 (stereo partly shown) [Example 24, (1s,4s)-4-(3-bromoanilino)-1′,2′-dimethyl-1′,2′-dihydrospiro[cyclohexane-1,3′-indole]-4-carboxylic acid]  19.9 µM
21. C#Cc1ccc2c(c1)[C@]1(CC[C@](Nc3cccc(Br)c3)(C(=O)O)CC1)C(=O)N2C [Example 18, (1r,4r)-4-(3-bromoanilino)-5′-ethynyl-1′-methyl-2′-oxo-1′,2′-dihydrospiro[cyclohexane-1,3′-indole]-4-carboxylic acid]  31.9 µM
22. Cc1ccc(C2=Cc3ccccc3C23CCC(Nc2cccc(Br)c2)(C(=O)O)CC3)cc1Cl (single isomer, unassigned) [Example 234, 4-(3-bromoanilino)-2′-(3-chloro-4-methylphenyl)spiro[cyclohexane-1,1′-indene]-4-carboxylic acid]  115 µM
